# pIC50: −log10 of the molar value.
# Target: human TRPA1 (Homo sapiens (Human), UniProt O75762)
# Test: hTRPA1 CHO Ca2+ FLIPR assay (block of cinnamaldehyde induced calcium influx)
# Assay type: cell-based
# Settings: CHO cells expressing TRPA1; 75 uM cinnamaldehyde; Hill coefficient fixed to 1.5; read-out: hTRPA1 (hTRPA1 CHO Ca2+ MAX EVO (IC50))
# Method: CHO cells expressing TRPA1 were plated into 384-well plates, incubated overnight at 37° C., and loaded with BD calcium indicator dye for 1 hr at 37° C. followed by 15 minutes at room temperature. The assay buffer was Hank's Balanced Salt Solution (HBSS) containing 20 mM HEPES (pH readjusted to 7.4) along with 0.02% BSA.
# Following dye load and plate cool down, compounds were added to the cells using FLIPR Tetra. Plates were then incubated with compounds for 20 minutes at room temperature prior to adding agonist.
# The IC50 results were fit with a standard Hill function, keeping the Hill coefficient (n) fixed to 1.5. Fixing the Hill coefficient will generally reduce variability of the IC50 determination. The IC50 results were individually examined to make sure the MIN and MAX points were set correctly prior to validation of the results.
# Sequence of human TRPA1 (O75762 whole entry): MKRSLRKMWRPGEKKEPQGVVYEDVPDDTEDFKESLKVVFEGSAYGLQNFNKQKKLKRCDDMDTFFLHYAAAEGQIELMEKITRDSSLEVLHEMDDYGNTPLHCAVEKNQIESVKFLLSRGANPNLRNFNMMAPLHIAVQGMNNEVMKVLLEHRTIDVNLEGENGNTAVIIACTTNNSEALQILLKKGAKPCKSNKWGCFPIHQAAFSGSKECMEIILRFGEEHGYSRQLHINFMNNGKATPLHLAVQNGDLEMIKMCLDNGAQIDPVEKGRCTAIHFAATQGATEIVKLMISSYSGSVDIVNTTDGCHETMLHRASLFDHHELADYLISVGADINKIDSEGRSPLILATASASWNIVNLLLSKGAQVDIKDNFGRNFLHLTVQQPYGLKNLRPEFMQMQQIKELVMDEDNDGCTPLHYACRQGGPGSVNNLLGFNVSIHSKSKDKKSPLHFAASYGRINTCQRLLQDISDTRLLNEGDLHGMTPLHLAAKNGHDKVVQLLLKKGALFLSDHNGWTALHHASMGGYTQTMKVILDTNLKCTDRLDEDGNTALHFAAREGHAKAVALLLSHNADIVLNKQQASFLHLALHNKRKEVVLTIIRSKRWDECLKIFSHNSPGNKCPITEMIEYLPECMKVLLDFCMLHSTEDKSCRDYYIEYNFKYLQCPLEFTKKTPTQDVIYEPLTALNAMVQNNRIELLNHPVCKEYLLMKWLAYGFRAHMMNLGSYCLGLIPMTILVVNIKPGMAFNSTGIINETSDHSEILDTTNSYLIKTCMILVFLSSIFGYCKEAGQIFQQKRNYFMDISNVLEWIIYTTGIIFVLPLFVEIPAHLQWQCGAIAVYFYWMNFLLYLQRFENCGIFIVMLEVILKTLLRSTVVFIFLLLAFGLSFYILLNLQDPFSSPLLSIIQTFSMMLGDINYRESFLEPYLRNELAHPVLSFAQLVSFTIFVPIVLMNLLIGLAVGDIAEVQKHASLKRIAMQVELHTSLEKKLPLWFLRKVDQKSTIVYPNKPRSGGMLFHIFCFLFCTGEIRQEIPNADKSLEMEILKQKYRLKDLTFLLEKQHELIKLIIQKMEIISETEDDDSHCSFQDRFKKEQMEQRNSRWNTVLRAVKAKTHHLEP
row,Structure (SMILES),pIC50
1,"Cn1cc(C#N)c2ncn(Cc3nn(CCc4ccc(Cl)cc4)c(=O)o3)c(=O)c21 [compound 56, 3-((4-(4-chlorophenethyl)-5-oxo-4,5-dihydro-1,3,4-oxadiazol-2-yl)methyl)-5-methyl-4-oxo-4,5-dihydro-3H-pyrrolo[3,2-d]pyrimidine-7-carbonitrile]",6.77
2,"Cc1ccc(=O)n2ccn(Cc3nn([C@H]4C[C@H](c5ccc(Cl)cc5)C4)c(=O)o3)c(=O)c12 [compound 58, 2-[[4-[3-(4-chlorophenyl)cyclobutyl]-5-oxo-1,3,4-oxadiazol-2-yl]methyl]-9-methyl-pyrido[1,2-a]pyrazine-1,6-dione]",7.39
3,"Cc1cc(C#N)nc2ncn(Cc3nn([C@H]4C[C@](F)(c5ccc(F)cc5)C4)c(=O)o3)c(=O)c12 [compound 61, 3-[[4-[3-fluoro-3-(4-fluorophenyl)cyclobutyl]-5-oxo-1,3,4-oxadiazol-2-yl]methyl]-5-methyl-4-oxo-pyrido[2,3-d]pyrimidine-7-carbonitrile]",7.95
4,"Cn1cnc2ncn(Cc3nn([C@H]4C[C@H](Oc5cccc(C#N)c5)C4)c(=O)o3)c(=O)c21 [compound 62, 3-[3-[5-[(7-methyl-6-oxo-purin-1-yl)methyl]-2-oxo-1,3,4-oxadiazol-3-yl]cyclobutoxy]benzonitrile]",7.34
5,"Cn1cnc2ncn(Cc3nn([C@H]4C[C@H](Oc5cccc(F)c5)C4)c(=O)o3)c(=O)c21 [compound 63, trans-3-[3-(3-fluorophenoxy)cyclobutyl]-5-[(7-methyl-6-oxo-purin-1-yl)methyl]-1,3,4-oxadiazol-2-one]",7.94
6,"Cn1nnc2ncn(Cc3nn([C@H]4C[C@H](c5ccc(Cl)cc5)C4)c(=O)o3)c(=O)c21 [compound 64, trans-3-[3-(4-chlorophenyl)cyclobutyl]-5-[(1-methyl-7-oxo-triazolo[4,5-d]pyrimidin-6-yl)methyl]-1,3,4-oxadiazol-2-one]",7.11
7,"O=c1c2cccc(=O)n2ccn1Cc1nn([C@H]2C[C@H](c3ccc(Cl)cc3)C2)c(=O)o1 [compound 65, trans-2-[[4-[3-(4-chlorophenyl)cyclobutyl]-5-oxo-1,3,4-oxadiazol-2-yl]methyl]pyrido[1,2-a]pyrazine-1,6-dione]",7.68
8,"Cc1ccnc2ncn(Cc3nn([C@H]4C[C@H](c5ccc6ncccc6c5)C4)c(=O)o3)c(=O)c12 [compound 66, 5-[(5-methyl-4-oxo-pyrido[2,3-d]pyrimidin-3-yl)methyl]-3-[3-(6-quinolyl)cyclobutyl]-1,3,4-oxadiazol-2-one]",7.90
9,"Cn1cnc2ncn(Cc3nn([C@H]4C[C@H](Oc5ccc(Cl)cc5)C4)c(=O)o3)c(=O)c21 [compound 69, 3-[3-(4-chlorophenoxy)cyclobutyl]-5-[(7-methyl-6-oxo-purin-1-yl)methyl]-1,3,4-oxadiazol-2-one]",6.11
10,"Cn1cnc2ncn(Cc3nn([C@H]4C[C@H](Oc5cccc(Cl)c5)C4)c(=O)o3)c(=O)c21 [compound 70, trans-3-[3-(3-chlorophenoxy)cyclobutyl]-5-[(7-methyl-6-oxo-purin-1-yl)methyl]-1,3,4-oxadiazol-2-one]",7.75
11,"Cn1cnc2ncn(Cc3nn([C@H]4C[C@H](c5ccc(C#N)cc5)C4)c(=O)o3)c(=O)c21 [compound 71, 4-[3-[5-[(7-methyl-6-oxo-purin-1-yl)methyl]-2-oxo-1,3,4-oxadiazol-3-yl]cyclobutyl]benzonitrile]",7.22
12,"O=c1c2c(Cl)ccnc2ncn1Cc1nn([C@H]2C[C@H](c3ccc(Cl)cc3)C2)c(=O)o1 [compound 73, 5-[(5-chloro-4-oxo-pyrido[2,3-d]pyrimidin-3-yl)methyl]-3-[3-(4-chlorophenyl)cyclobutyl]-1,3,4-oxadiazol-2-one]",8.23
13,"Cn1cnc2ncn(Cc3nn(CCCOc4cccc(F)c4)c(=O)o3)c(=O)c21 [compound 74, 3-[3-(3-fluorophenoxy)propyl]-5-[(7-methyl-6-oxo-purin-1-yl)methyl]-1,3,4-oxadiazol-2-one]",7.11
14,"Cc1ccnc2ncn(Cc3nn([C@H]4C[C@](F)(c5cccc(F)c5)C4)c(=O)o3)c(=O)c12 [compound 75, 3-[3-fluoro-3-(3-fluorophenyl)cyclobutyl]-5-[(5-methyl-4-oxo-pyrido[2,3-d]pyrimidin-3-yl)methyl]-1,3,4-oxadiazol-2-one]",7.39
15,"Cc1ccnc2ncn(Cc3nn([C@H]4C[C@](F)(c5ccc(C#N)cc5)C4)c(=O)o3)c(=O)c12 [compound 77, 4-[1-fluoro-3-[5-[(5-methyl-4-oxo-pyrido[2,3-d]pyrimidin-3-yl)methyl]-2-oxo-1,3,4-oxadiazol-3-yl]cyclobutyl] benzonitrile]",7.67
16,"Cc1ccnc2ncn(Cc3nn([C@H]4C[C@H](c5ccc(C#N)cc5)C4)c(=O)o3)c(=O)c12 [compound 79, 4-[3-[5-[(5-methyl-4-oxo-pyrido[2,3-d]pyrimidin-3-yl)methyl]-2-oxo-1,3,4-oxadiazol-3-yl]cyclobutyl]benzonitrile]",8.59
17,"Cn1c(=O)ccc2ncn(Cc3nn([C@H]4C[C@H](c5ccc(Cl)cc5)C4)c(=O)o3)c(=O)c21 [compound 83, 3-((4-((trans)-3-(4-chlorophenyl)cyclobutyl)-5-oxo-4,5-dihydro-1,3,4-oxadiazol-2-yl)methyl)-5-methylpyrido[3,2-d]pyrimidine-4,6(3H,5H)-dione]",7.82
18,"Cc1ccnc2ncn(Cc3nn(CCCOc4cccc(Cl)c4)c(=O)o3)c(=O)c12 [compound 85, 3-(3-(3-chlorophenoxy)propyl)-5-((5-methyl-4-oxopyrido[2,3-d]pyrimidin-3(4H)-yl)methyl)-1,3,4-oxadiazol-2(3H)-one]",8.20
19,"Cn1cnc2ncn(Cc3nn(CCCOc4cccc(Cl)c4)c(=O)o3)c(=O)c21 [compound 86, 1-([4-[3-(3-chlorophenoxy)propyl]-5-oxo-4,5-dihydro-1,3,4-oxadiazol-2-yl]methyl)-7-methyl-6,7-dihydro-1H-purin-6-one]",7.65
20,"Cc1ccnc2ncn(Cc3nn([C@H]4C[C@H](c5ccc(F)cc5)C4)c(=O)o3)c(=O)c12 [compound 88, 3-[3-(4-fluorophenyl)cyclobutyl]-5-[(5-methyl-4-oxo-pyrido[2,3-d]pyrimidin-3-yl)methyl]-1,3,4-oxadiazol-2-one]",8.24
21,"Cn1cnc2cnn(Cc3nn([C@H]4C[C@H](c5ccc(Cl)cc5)C4)c(=O)o3)c(=O)c21 [compound 89, 3-[3-(4-chlorophenyl)cyclobutyl]-5-[(3-methyl-4-oxo-imidazo[4,5-d]pyridazin-5-yl)methyl]-1,3,4-oxadiazol-2-one]",7.34
22,"O=c1c2cccnc2cnn1Cc1nn([C@H]2C[C@H](c3ccc(Cl)cc3)C2)c(=O)o1 [compound 90, 3-[3-(4-chlorophenyl)cyclobutyl]-5-[(5-oxopyrido[2,3-d]pyridazin-6-yl)methyl]-1,3,4-oxadiazol-2-one]",7.10
23,"Cc1noc2ncn(Cc3nn([C@H]4C[C@H](c5ccc(Cl)cc5)C4)c(=O)o3)c(=O)c12 [compound 91, 5-[[4-[3-(4-chlorophenyl)cyclobutyl]-5-oxo-1,3,4-oxadiazol-2-yl]methyl]-3-methyl-isoxazolo[5,4-d]pyrimidin-4-one]",7.44
24,"Cn1cnc2ncn(Cc3nn([C@@H]4CC[C@@H](c5ccc(F)cc5)C4)c(=O)o3)c(=O)c21 [compound 92, 5-[(7-methyl-6-oxo-purin-1-yl)methyl]-3-[(1R,3R)-3-(4-fluorophenyl)cyclopentyl]-1,3,4-oxadiazol-2-one]",8.08
25,"Cc1cc(C#N)nc2ncn(Cc3nn([C@H]4C[C@H](c5ccc(Cl)cc5)C4)c(=O)o3)c(=O)c12 [compound 93, trans-3-[[4-[3-(4-chlorophenyl)cyclobutyl]-5-oxo-1,3,4-oxadiazol-2-yl]methyl]-5-methyl-4-oxo-pyrido[2,3-d]pyrimidine-7-carbonitrile]",8.32
26,"O=c1c2cccnc2ncn1Cc1nn([C@H]2C[C@](F)(c3ccc(Cl)cc3)C2)c(=O)o1 [compound 94, trans-3-[3-(4-chlorophenyl)-3-fluoro-cyclobutyl]-5-[(4-oxopyrido[2,3-d]pyrimidin-3-yl)methyl]-1,3,4-oxadiazol-2-one]",7.77
27,"Cc1ccnc2ncn(Cc3nn([C@H]4C[C@](F)(c5ccc(F)cc5)C4)c(=O)o3)c(=O)c12 [compound 96, 3-[3-fluoro-3-(4-fluorophenyl)cyclobutyl]-5-[(5-methyl-4-oxo-pyrido[2,3-d]pyrimidin-3-yl)methyl]-1,3,4-oxadiazol-2-one]",7.74
28,"Cn1cnc2ncn(Cc3nn([C@H]4C[C@](F)(c5ccc(F)cc5)C4)c(=O)o3)c(=O)c21 [compound 97, 3-[3-fluoro-3-(4-fluorophenyl)cyclobutyl]-5-[(7-methyl-6-oxo-purin-1-yl)methyl]-1,3,4-oxadiazol-2-one]",7.10
29,"O=c1c2cccnc2ncn1Cc1nn([C@H]2C[C@H](c3ccc(Cl)cc3)C2)c(=O)o1 [compound 98, trans-3-[3-(4-chlorophenyl)cyclobutyl]-5-[(4-oxopyrido[2,3-d]pyrimidin-3-yl)methyl]-1,3,4-oxadiazol-2-one]",7.79
30,"Cc1ccnc2ncn(Cc3nn([C@H]4C[C@@](F)(c5ccc(C(F)(F)F)cc5)C4)c(=O)o3)c(=O)c12 [compound 99, 3-[3-fluoro-3-[4-(trifluoromethyl)phenyl]cyclobutyl]-5-[(5-methyl-4-oxo-pyrido[2,3-d]pyrimidin-3 yl)methyl]-1,3,4-oxadiazol-2-one]",7.24

# Reference: patent US10913742B2, “Oxadiazolones as transient receptor potential channel inhibitors” (Genentech, Inc., priority 2017, dated 2021)
